1 compound from paper PMC11649037, “Monitoring conformational changes in the human neurotransmitter transporter homologue LeuT with ^19F‐NMR spectroscopy” (Journal of Neurochemistry, 2024) can be followed below.

The target of this test is T1, LeuT (Leucine Transporter) (Aquifex aeolicus, UniProt O67854, K398C).
T1 construct: gene snf; LeuT K398C labelled with BTFA, in DDM micelles
Kind of test: 1D […]-NMR, […] L-ala with […] Na+ (shift to outward-facing closed state). In kind it is binding.

On to `C[C@H](N)C(=O)O` [Alanine], for which the “1D 19F-NMR, 4 mM L-ala with 200 mM Na+ (shift to outward-facing closed state)” value is “Alanine/Na^+ K398C‐BTFA LeuT (Figure 2e) and Phenylalanine/Na^+ K398C‐BTFA LeuT (Figure 2f) which show a similar shift toward S1 resonance”.
